Experimental data reported in patent publication US20150093821A1, “BIODEGRADABLE POLYURETHANES AND USE THEREOF” (CARNEGIE MELLON UNIVERSITY, priority 2003, published 2015).

Assays:
[1] = tested on: alkaline phosphatase activity of mouse bone cells (OPC); experiment: Alkaline phosphatase activity of OPC with bioactive reagents or polymer foams; assay type: cell-based; conditions: 4 weeks, OD at 405 nm, medium with or without polymer, FIG. 5
Protocol: Bioactive polymers containing covalently bound dexamethasone and β-glycerophosphate were also synthesized and studied for potential use as bone scaffolds. In several studies, mouse bone cells (OPC) (9.6×10^4/well) were cultured in a 6-well tissue culture plate without polymer foam (blank column) with Dulbecoo's modified Eagle's medium only (DMEM); with 5 mM β-glycerophosphate (β-GP); with 100 nM dexamethasone (Dex); 50 μM ascorbic acid (Vc); with 50 μM ascorbic acid and 5 mM β-glycerophosphate (Vc+β-GP); with 50 μM ascorbic acid and 100 nM dexamethasone (Vc+Dex); with 50 μM ascorbic acid, 100 nM dexamethasone and 5 mM β-glycerophosphate (Vc+Dex+β-GP) for 4 weeks.
The same cells were cultured in a 6-well plate with the LDI-PEG400-glucose polymer (red column) using DMEM only. The polymer foams were synthesized with lysine ethyl ester diisocyanate (LDI), glucose and PEG only (DMEM); with LDI, glucose, PEG and β-glycerophosphate (β-GP); with LDI, glucose, PEG and dexamethasone (Dex); with LDI, glucose, PEG and ascorbic acid (Vc); with LDI, glucose, PEG, ascorbic acid and β-glycerophosphate (Vc+β-GP); with LDI, glucose, PEG, ascorbic acid and dexamethasone (Vc+Dex); and with LDI, glucose, PEG, ascorbic acid, 3-glycerophosphate and dexamethasone (Vc+Dex+β-GP). […] The alkaline phosphatase activity was determined by the OD at 405 nm in the medium with or without polymer. […]

[2] = tested on: type I collagen of GFP-MBMC; experiment: Western blot analysis for type I collagen; assay type: cell-based, mouse; conditions: two weeks of culture
Protocol: After two weeks of culture, the cells were harvested with Trypsin, subjected to a centrifuge and washed once with PBS. Thereafter, the lysis buffer/CLAP solution was added to the cells (Lysis buffer: 0.187 g HEPE, 0.4235 g NaCl, 0.001 g MgCl2 and 0.19 g EGTA dissolved in 50 ml PBS. CLAP solution: 4 μl each of chymostatin, leupeptin, antipain and pepstatin A in 100 μl PBS. Lysis buffer/CLAP solution: 100 μl CLAP solution added to 6.6 ml Lysis buffer). To assure complete rupture of the cells, the tubes were stored at −20° C. for 12 hrs. Total protein concentration was quantified using the BCA protein assay kit (Fisher Scientific, USA), which measured the light absorbance at 562 nm verses a standard curve on a microplate reader.
The protein obtained as described above was re-suspended in Laemmli sample buffer, followed by protein separation on an SDS-10% polyacrylamide gel. Western blotting was performed as described previously. […]
To ensure that equal amount of total protein was loaded to the membrane, GAPDH (glycerealdehyde-3-phosphate dehydrogenase) was detected using rat-anti-mouse GAPDH antibody (ICN Biochemicals, USA) followed by peroxidase-conjugated rabbit-anti-rat IgG antibody (E.Y. Laboratories, Inc. USA). […] Molecular weights of the proteins were determined using prestained molecular weight standards (14,300-200,000 molecular weight range; GIBCO BRL). […]

[3] = tested on: collagen type I in GFP-MBMC; experiment: Collagen type I production (Sirius Red F3B); assay type: cell-based, mouse; conditions: after 7 days culture, P<0.005
Protocol: Soluble calf skin collagen type I was used for the standard curves run with each assay (see FIG. 14). […] Three individual experiments were performed for type I collagen. The results were presented as the mean±standard deviation (n=3).

SMILES	alkaline phosphatase activity of OPC [1]	type I collagen secreted (Western blotting) [2]	concentration of collagen type I relative to LDI-glycerol-PEG scaffold or tissue culture plate [3]
O=P(O)(O)OC(CO)CO [β-glycerophosphate]	more moderately	–	–
O=C1O[C@H]([C@@H](O)CO)C(O)=C1O [ascorbic acid]	significantly increased	higher concentrations	two times higher
